Here are results for three molecules from publication PMC12495443, “Developing inhibitors of the guanosine triphosphate hydrolysis accelerating activity of Regulator of G protein Signaling-14 [drawing 1]” (The Journal of Biological Chemistry, 2025).

Residue numbers refer to the chain shown, from its start. Entries after “also recorded” stand apart in the source; their conditions may differ. Where two headings read alike, the source gives them in different places.

The target of series [1] is T1, human RGS12 RGS-box (wild-type) (Homo sapiens, UniProt O14924).
T1 construct: human RGS12 RGS-box (aa 695–843 of UniProt O14924); host or cells: E. coli
T1 sequence (O14924 695-843): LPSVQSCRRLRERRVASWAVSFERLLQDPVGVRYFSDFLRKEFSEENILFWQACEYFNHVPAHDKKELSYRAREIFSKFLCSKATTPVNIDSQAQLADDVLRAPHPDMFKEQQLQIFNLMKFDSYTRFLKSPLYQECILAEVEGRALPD
Set-up: method as in earlier work. As to conditions: Transcreener GDP RGScreen; ref (8); cited from earlier work.

Series [2] has as its target T2, cysteine-less RGS14 RGS-box protein (Homo sapiens, UniProt O43566, C100S/C183S).
T2 construct: human RGS14 RGS-box (aa 46–195 of UniProt O43566); host or cells: E. coli
T2 sequence (O43566 46-195 C100S/C183S): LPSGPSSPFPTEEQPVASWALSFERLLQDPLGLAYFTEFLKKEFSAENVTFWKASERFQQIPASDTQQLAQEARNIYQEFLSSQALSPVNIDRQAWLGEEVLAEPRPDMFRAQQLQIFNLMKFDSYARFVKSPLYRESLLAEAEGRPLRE
The series can be described thus: Transcreener GDP RGScreen assay with cysteine-less RGS14 RGS-box. Type of series: biochemical. From the text: (§1) Given the earlier experience with screening hit CCG-4986 being a covalent modifier of RGS4 cysteine residues ([35]), we sought to exclude protein-thiol reactivity as a potential mechanism of action of the active compounds derived from the AtomNet virtual screening effort ([55]) and SAR campaign follow-ups. To address this possibility and screen out thiol-reactive hits, cysteine-lacking versions of recombinant proteins spanning the RGS-boxes of RGS14 and RGS12 were purified from E. coli cultures.
(§2) Reagents and protocols for the fluorescence anisotropy-based Transcreener GDP RGScreen assay using a rate-altered, double point-mutant, recombinant Gαi1 protein have been extensively described previously ([43], [44]); reactions were always performed so that total GTP converted over the time course was consistently less than 10% of reaction maximum input. Specific methods for its application in assessing RGS14 and RGS12 GAP activity are summarized as follows. Open-reading frames (ORFs) encoding wild-type versions of the human RGS14 RGS-box (aa 46–195 of UniProt O43566) and human RGS12 RGS-box (aa 695–843 of UniProt O14924) were each sub-cloned in-frame with an N-terminal hexahistidine (His6) expression tag in the plasmid pET30a, expressed in E. coli cultures, and then purified by nickel-nitriloacetate (Ni-NTA) and size-exclusion (Superdex 200) column chromatographies by GenScript using previously described methods ([35]). […]
Supplementary Figure S5. […] (A,B) Recombinant, cysteine residue-lacking (“-cys”) RGS14 RGS-box protein (panel A) and cysteine residue-lacking RGS12 RGS-box protein ([…]) were both observed, in a concentration-dependent fashion (indicated in ng/µL by color), to increase steady-state GDP production by 0.5 ng/µL Gai1(DM) protein in a 20 µL final reaction volume, as measured by the Transcreener® GDP-detection RGScreen™ assay and detected by the change in polarization (ΔmP) at each indicated time point (“enz” = Gai1(DM) protein a.k.a. […]

Series [3] has as its target T3, cysteine-less RGS12 RGS-box protein (Homo sapiens, UniProt O14924, C701S/C748S/C775S/C831S).
T3 construct: human RGS12 RGS-box (aa 695–843 of UniProt O14924); host or cells: E. coli
T3 sequence (O14924 695-843 C701S/C748S/C775S/C831S): T1 sequence (O14924 695-843) with C7S, C54S, C81S, C137S
The experiment in a line: Transcreener GDP RGScreen assay with cysteine-less RGS12 RGS-box. Type of series: biochemical. The note with it: range given jointly for cysteine-less RGS14 and RGS12 proteins; read-out: estimated IC50, cysteine-less RGS12 RGS-box.
Excerpt: as §1
as §2, with “Specific methods for its application in assessing RGS14 and RGS12 GAP activity are summarized as follows.” left out

For series [4], the target named is T4, human RGS14 RGS-box (wild-type) (Homo sapiens, UniProt O43566).
T4 construct: human RGS14 RGS-box (aa 46–195 of UniProt O43566); host or cells: E. coli
T4 sequence (O43566 46-195): T2 sequence (O43566 46-195 C100S/C183S) with S55C, S138C
The experiment in a line: Transcreener GDP RGScreen fluorescence polarization assay of RGS14 RGS-box GAP activity on Gαi1(DM). Type of series: biochemical. As to conditions: for IC50: Transcreener GDP RGScreen. Summed up:
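Steady-state GTP hydrolysis by rate-altered double point-mutant Gαi1 was read by Transcreener GDP fluorescence polarization, with GTP conversion kept below 10% of maximum input. The E. coli-expressed, N-terminal His6-tagged wild-type RGS-boxes were RGS12 aa 695–843 and RGS14 aa 46–195.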

Series [5] deals with T4, human RGS14 RGS-box (wild-type). Set-up: method as in earlier work. As to conditions: Transcreener GDP RGScreen; ref (8); cited from earlier work.
Series [6] has as its target T1, human RGS12 RGS-box (wild-type). The series can be described thus: Transcreener GDP RGScreen fluorescence polarization assay of RGS12 RGS-box GAP activity on Gαi1(DM). Type of series: biochemical. As to conditions: wild-type RGS12 RGS-box GAP activity, Gαi1(DM), read-out: RGS12 pIC50 (converted). From the text: We previously described work with BellBrook Labs creating the Transcreener GDP RGScreen fluorescence polarization assay of steady-state GTP hydrolysis, leveraging a double point-mutant in the Gα enzyme to make GTP hydrolysis, rather than GDP (product) release, the rate-limiting step for multiple rounds of GTP conversion ([57], [59]). […] Titrating inputs of the double point-mutant (“DM”) Gαi1 and RGS-box recombinant proteins (Fig. S2, B and C) established a robust, medium-throughput assay for evaluating potential RGS14 and RGS12 inhibitors, with “assay quality” Z′ scores ([60]) above 0.76 for each target (Fig. S2D).
Reagents and protocols for the fluorescence anisotropy-based Transcreener GDP RGScreen assay using a rate-altered, double point-mutant, recombinant Gαi1 protein have been extensively described previously ([43], [44]); reactions were always performed so that total GTP converted over the time course was consistently less than 10% of reaction maximum input. Specific methods for its application in assessing RGS14 and RGS12 GAP activity are summarized as follows. Open-reading frames (ORFs) encoding wild-type versions of the human RGS14 RGS-box (aa 46–195 of UniProt O43566) and human RGS12 RGS-box (aa 695–843 of UniProt O14924) were each sub-cloned in-frame with an N-terminal hexahistidine (His6) expression tag in the plasmid pET30a, expressed in E. coli cultures, and then purified by nickel-nitriloacetate (Ni-NTA) and size-exclusion (Superdex 200) column chromatographies by GenScript using previously described methods ([35]). These recombinant His6-tag fusion proteins were stored at −80 °C in storage buffer (150 mM NaCl, 50 mM Tris-HCl pH 8.0, 10% glycerol) before thawing and use. Cysteine-less versions were similarly produced by ORF site-directed mutagenesis: for RGS14, codons for cysteine residues 47 and 130 (numbered as in PDB id 2JNU) were replaced with serine codons; for RGS12, codons for cysteines 4, 51, 78, and 134 (numbered in relation to PDB id 2EBZ) were replaced with serine codons. Use of Transcreener GDP-detection reagents to assess compound inhibition of Naegleria fowleri Gα7 protein GTPase activity ([83]) has previously been described ([84]).
On the technique in general: In fluorescence polarisation assays a small probe gives low polarisation when free and higher when bound to something large.

Series [7] addresses T5, RGS14 RGS-box (GAP activity on wild-type Gαi1) (Homo sapiens, UniProt O43566).
T5 sequence (O43566 67-184 limits assumed): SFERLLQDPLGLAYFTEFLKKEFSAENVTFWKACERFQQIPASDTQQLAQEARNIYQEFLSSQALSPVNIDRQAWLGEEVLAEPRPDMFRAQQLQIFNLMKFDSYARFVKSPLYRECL
The experiment in a line: Single-turnover [γ-33P]GTP hydrolysis assay of RGS-box GAP activity. Type of series: biochemical. The note with it: wild-type Gαi1, concentration-dependent. From the text:
To further evaluate the functional activity of these triazolothiadiazine derivatives, and especially to eliminate concerns of misascribing GAP-inhibitory activity to potential assay interference, we tested two representative compounds—Z55660043 and Z55627844—in the gold-standard single-turnover radioactive GTP hydrolysis assay ([7], [58]) (Fig. 6).
The single-turnover radiolabeled-GTP hydrolysis assay is the gold standard assay for RGS-box GAP activity, first described using [γ -^32P]GTP by Berman et al. ([7]) and recently modified for modern performance ([91], [92], [93], [94]) to use readily available [γ-^33P]GTP substrate and perchloric acid quenching. The assay was performed by first pre-loading wild-type (WT) Gα protein (i.e., 750 nM purified, recombinant, wild-type-sequence human Gαi1 protein) with a slight excess (1 μM) of [γ-^33P]GTP for 15 min at 30 °C. Assay initiation involved adding purified recombinant RGS protein previously pre-incubated for 30 min at 30 °C with a candidate inhibitor. […] Supernatant aliquots were then added to liquid scintillation fluid and [^33P]-Pi content (i.e., hydrolyzed GTP) was quantified with a scintillation counter with an appropriate β-transmission window.

A further series deals with THP-1 cell line. The series can be described thus: Cytotoxicity assays (CytoTox-Glo, CytoTox 96). Type of series: cell-based. The note with it: THP-1 cells, overnight, CytoTox-Glo and CytoTox 96. The protocol:
To evaluate cellular toxicity of active compounds, we employed the immortalized human monocytic THP1-Dual cell line (InvivoGen) in two orthogonal cytotoxicity assays: ATP-dependent luminescence (CytoTox-Glo) and colorimetric lactate dehydrogenase (LDH) release (CytoTox 96). For each assay, compounds were serially diluted 2-fold starting at 250 μM and added to 96-well flat-bottom tissue culture plates (Thermo Scientific Nunc, Cat# 165306). THP1-Dual cells were then seeded at 20,000 to 30,000 cells per well in 100 μl RPMI 1640 media supplemented with 10% fetal bovine serum (Gibco). Plates were gently mixed and incubated overnight at 37 °C in a humidified 5% CO2 incubator. For the CytoTox-Glo assay (Promega, Cat# G9291), 50 μl of assay reagent was added to each well. Plates were mixed briefly, sealed, and incubated at room temperature for 15 min before reading luminescence on a TECAN Infinite M1000 Pro plate reader to quantify dead-cell signal. Subsequently, 50 μl of a digitonin-containing lysis solution was added to each well, followed by a second luminescence read after 15 min to assess total cell content. Percent cytotoxicity was calculated per manufacturer instructions. For the CytoTox 96 Non-Radioactive Cytotoxicity Assay (Promega, Cat# G1780), after overnight compound treatment, LDH release into the culture medium was measured by adding the provided substrate mix. Absorbance was read at 490 or 492 nm within 1 h of adding the stop solution. Assay optimization and data normalization were conducted according to the manufacturer’s technical manual.

Setting [8] is: wild-type RGS14 RGS-box GAP activity, Gαi1(DM), read-out: RGS14 pIC50 (converted).

Regarding `COc1ccc2[nH]c(SC(C)C(=O)c3c(F)cc(F)cc3F)nc2c1` (stereo not drawn) [Z1098346112, 2-[(5-methoxy-1H-1,3-benzodiazol-2-yl)sulfanyl]-1-(2,4,6-trifluorophenyl)propan-1-one], in series [1], the “estimated pIC50 RGS12” value is reported as 4.4. For the same molecule, the IC50 in series [2] (range given jointly for cysteine-less RGS14 and RGS12 proteins, read-out: estimated IC50, cysteine-less RGS14 RGS-box) is 26 to 64 µM; in series [3] it was 26 to 64 µM; in series [4] (setting [8]), 63.1 µM. Also, the “estimated pIC50RGS14” value in series [5] is listed as 4.2.
As for `COc1ccc(OCc2nnc3n2N=C(c2cc4ccccc4o2)CS3)cc1` [Z55627844], the IC50 was 21.9 µM in series [6] and 3.63 µM in series [4] (setting [8]). Moreover, the “inhibition of RGS14 RGS-box-mediated acceleration of [γ-33P]GTP hydrolysis” value in series [7] is “inhibit RGS14 RGS-box-mediated acceleration”. Further, in the series with THP-1 cell line, the cytotoxicity entry is listed as “without measurable cytotoxicity; also recorded: no overt cytotoxicity”. For the same molecule, the “Ratio (RGS14 pIC50 / RGS12 pIC50)” value in series [4] (values > 1.0 reflect RGS14 selectivity) came out at 1.17.
Turning to `CN1C(=O)[C@@]23C[C@]4([C@]56C[C@@]78SS[C@@](CO)(C(=O)N7[C@H]5Nc5ccccc56)N(C)C8=O)c5ccccc5N[C@@H]4N2C(=O)[C@]1(CO)SS3` [chaetocin, reference compound], the “inhibitory activity on cysteine-free RGS14 RGS-box (in words)” value in series [2] (compared with wild-type RGS14 RGS-box) is reported as “largely lost”. For the same molecule, in series [4] (wild-type RGS14 RGS-box, read-out: IC50 against RGS14 RGS-box GAP activity), the IC50 was found to be 0.32 µM.
